Patent US7264314B2, “Adrenocorticotropic hormone analogs and related methods” (priority 2004, dated 2007)
No end group written: not given here.

Experiments:
[1] = test system: corticosterone production by explanted mouse adrenal halves; assay: in vitro Serum-free Adrenal Inhibition Assay; format: cell-based
Protocol: A series of separate in vitro Serum-Free Adrenal Corticosteroid Inhibition Assay were performed to identify ACTH analogs that inhibit ACTH-induced adrenal hormone production in vitro. The concentration of corticosterone was measured according to the procedure of Example 4 in a serum-free culture medium containing explanted adrenal membrane and unmodified ACTH, AT814 ACTH analog (SEQ ID NO:20), or a combination of ACTH and AT814 at 100 ng/mL each. […] Corticosterone levels were taken at 2.0 hours after the adrenal membrane was placed in the serum free M199 medium, and each corticosterone level in Table 5 is an average of five samples.
The in vitro Serum-free Adrenal Inhibition Assay was performed according the following method. First, adrenals were removed from mice, dissected free of fat, and cut in half. See Costa, J L, et al., “Mutational analysis of evolutionarily conserved ACTH residues,” Gen Comp Endocrinol. 136:12–16 (2004); and Weber, M M, et al., “Postnatal overexpression of insulin-like growth factor II in transgenic mice is associated with adrenocortical hyperplasia and enhanced steroidogenesis,” Endocrinology 140:1537–1543 (1999), incorporated herein by reference.
Second, each adrenal half was placed into an individual well of a 4-well dish, one dish per mouse. Adrenal halves were incubated at 5% CO2, 37° C., in 0.5 ml serum-free medium (M199; Invitrogen) for 30 minutes to equilibrate.
Third, medium was removed and replaced by 0.5 ml M199 containing ACTH, AT814, or both, at 100 ng/ml each; controls had no peptides added.
Fourth, after 2 hours of incubation, the medium was removed, pooled for all four halves from each mouse, and assayed by corticosterone using standard RIA methods. corticosterone was determined by competitive radioimmunoassay (^125I RIA kit; ICN, Costa Mesa, Calif.) according to the manufacturer's recommendations. One microliter of serum was used per assay sample. Samples were run in duplicates.

[2] = test system: serum corticosterone in dexamethasone-suppressed mice; assay: in vivo Serum Corticosteroid Induction Assay; set-up: species or system FVB/N mice; conditions: compared to unmodified mACTH(1–24); 1 μg s.c.; blood one hour after administration
Protocol: An in vivo Serum Corticosteroid Induction Assay measures the level of corticosteroid or corticosterone in the blood stream of a subject. More specifically, the in vivo Serum Corticosteroid Induction Assay can include the following steps: first, an agent to suppress endogenous ACTH production was administered to a mouse subject, such as an intraperitoneal injection of dexamethasone; second, after waiting a suitable period of time for suppression of endogenous ACTH production (e.g., 1.5–2.0 hours), a test compound can be administered to the mouse by a suitable method, such as intraperitoneal or subcutaneous injection; and third, after waiting a suitable period of time (e.g., 1 hour) for action of the injected test compound, a blood sample can be taken from the subject and the level of serum corticosterone can be determined by a suitable method, such as a competitive radioimmunoassay using ^125I RIA kit (ICN, Costa Mesa, Calif.). Example 1 describes a murine in vivo Serum Corticosteroid Induction Assay in detail.
The corticosteroid or corticosterone secretion induced in vivo by an ACTH analog compound was compared to the level of corticosteroid secretion produced by an unmodified ACTH compound by measuring blood serum corticosteroid after administering either the ACTH or ACTH analog as test compounds. […] ACTH analog compositions with decreased function were identified by measuring corticosterone levels using standard radioimmunoassay (RIA) analysis on blood samples collected one hour after administering the mACTH(1–24) or ACTH analog compound to dexamethasone-suppressed mice. In FIG. 1, the potency of various ACTH analog peptides is expressed as per cent induction of corticosterone, with mouse ACTH being 100%. […] The percent of corticosterone induction 12 of ACTH analog Compounds in Samples 2–10 are shown as a percentage of the concentration of serum corticosterone 20 measured for unmodified mACTH(1–24) in the in vivo Serum Corticosteroid Adrenal Induction Assay. The structural modifications and measured percentage reduction in serum measured for Samples 2–10 in FIG. 1 are shown in Table 3 below.
The in vivo Serum Corticosteroid Induction Assay was performed according the following method. First, two to three month-old male FVB/N mice from our colony, five per group, were injected intraperitoneally with dexamethasone (0.4 mg/0.1 ml PBS per mouse; Sigma, St. Louis, Mo.) to suppress their endogenous ACTH production. See Hajos, G T et al., “Studies of the potency of polypeptides with ACTH action by a new method based on continuous measurement of plasma corticosterone,” Steroids Lipids Res 3:225–228 (1972), Costa, J L, et al., “Mutational analysis of evolutionarily conserved ACTH residues,” Gen Comp Endocrinol, 136:12–16 (2004), and Karpac, J, et al., “Development, Maintenance, and Function of the Adrenal Gland in Early Postnatal Pro-opiomelanocortin Null Mutant Mice,” Endocrinology (2005), published online ahead of print Feb. 24, 2005, all of which are incorporated herein by reference.
Second, ninety to one hundred twenty minutes later, the dexamethasone-suppressed mice were injected subcutaneously between the shoulder blades with either unmodified mACTH(1–24) or one of several ACTH analog peptide compounds (1 μg/0.1 mL PBS/0.5% BSA), or with vehicle alone (control) (0.1 mL PBS/0.5% BSA). The following ACTH analog peptide compounds were administered to separate mice: 1: murine ACTH1–24; 2: V26F,E30K; 3: P19W,K21E,Y23R; 4: E30K,P36R; 5: ALA19–24; 6: V26F,P36R; 7: P19W, K21E; 8: P19W,K21A,delY23; 9: P19W,K21A; 10: KRRP16-19RMW (AT814) (SEQ ID NO:20).
Third, one hour later, blood was collected within less than 1 minute from a small incision in the tail, and serum was flash-frozen and stored at −80° C. until assayed. Serum corticosterone was determined by competitive radioimmunoassay (^125I RIA kit; ICN, Costa Mesa, Calif.) according to the manufacturer's recommendations. One microliter of serum was used per assay sample. […]

N-Ser^1-Tyr-Ser-Met-Glu^5-His-Phe-Arg-Trp-Gly^10-Lys-Pro-Val-Gly-Lys^15-Arg-Ala-Ala-Trp-Val^20-Lys-Val-Tyr-Pro-Ac (SYSMEHFRWGKPVGKRAAWVKVYP; not fully specified (C-terminus); printed as N-Ser1-Tyr-Ser-Met-Glu5-His-Phe-Arg-Trp-Gly10-Lys-Pro-Val-Gly-Lys15-Arg-Ala-Ala-Trp-Val20-Lys-Val-Tyr-Pro-Ac) [AT814]
corticosterone induction relative to ACTH (FIG. 4) ([1]; AT814 alone): negligible amount of corticosterone induction
reduction of corticosterone induction compared to unmodified ACTH alone ([1]; equal amounts of AT814 and unmodified ACTH): about 65%
corticosterone level in M199 serum-free medium ([1]; peptide alone, 100 ng/mL, 2 hours after addition, average of five samples, listed as (KKRRP15-19KRAAW) mACTH(1–24)): about 290 mg/mL
Percent reduction in serum corticosteroid [2]: 100%
